This note sets out measurements from US5846755A (priority 1995, dated 1998).

For orientation: IC50 means the concentration needed to halve the response being measured. Usually % Inhibition stands for how much of the control response was suppressed.

Data set [1] addresses enzyme purified from the venom of Crotalus Adamanteus (hemorrhagin) (Crotalus adamanteus, UniProt P34179). Format: biochemical. Particulars: read-out: IC50.
For data set [2], the target named is neutrophil collagenase (recombinant human) (Homo sapiens, UniProt P22894). Description: In vitro assays on recombinant human collagenase. The class given is biochemical. The method, then: Using the same enzymatic determination already described (fluorimetric detection of cleavage of a substrate peptide containing a fluorescent moiety), some of the compounds were tested on neutrophil collagenase, an enzyme described as participating in any kind of inflammatory reaction in mammalian bodies. In this case, the purified enxzyme was also obtained by recombinant means.
Sequence of neutrophil collagenase (recombinant human) (P22894 101-467): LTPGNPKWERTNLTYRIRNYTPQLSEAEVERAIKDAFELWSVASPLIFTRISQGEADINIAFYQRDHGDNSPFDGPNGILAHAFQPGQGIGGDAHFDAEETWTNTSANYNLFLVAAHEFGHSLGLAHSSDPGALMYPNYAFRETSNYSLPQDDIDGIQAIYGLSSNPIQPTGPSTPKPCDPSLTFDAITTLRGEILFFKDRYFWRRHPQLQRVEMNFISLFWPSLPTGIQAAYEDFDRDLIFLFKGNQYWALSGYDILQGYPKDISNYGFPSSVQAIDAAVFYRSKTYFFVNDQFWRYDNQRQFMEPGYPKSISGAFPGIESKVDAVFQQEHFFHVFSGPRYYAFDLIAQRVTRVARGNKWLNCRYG

Data set [3] relates to release of active TNF in human cell culture medium (Jurkat). As to the kind of experiment: Release of active TNF from Jurkat cells (ELISA). The class given is cell-based. The following applies: 72 hours incubation, stimulated with PMA and ionophore calcium. The method, then:
It is well known that TNF plays a fundamental role in certain physiological defense responses but, on the other hand, causes severe damage when it is released into circulation in excessive amounts or for prolonged periods. […] An attempt was, therefore, made to see whether certain compounds selected from among those of the present application and of WO 92/06108 were capable of blocking the release of active TNF in human cell culture medium (Jurkat). The cells were incubated in the presence or in the absence of metalloproteinase inhibitor for 72 hours; the release of TNF was then stimulated using activators (PMA and ionophore calcium), and the Factor was dosed into the culture medium using the ELISA test (Genzyme).

In data set [4] the test system is blood cells that migrate to the inflamed site (lymphocytes, neutrophils, eosinophils, macrophages). Description: Hypereosinophilia induced in rats by Sephadex G-200 resin. Format: in vivo. Particulars: hypereosinophilia induced by Sephadex G-200 resin, result in words. The method, then: As the metalloproteinases produced by the cells of mammals are of fundamental importance to allow the cells to migrate from one tissue to another within the organism, Compounds 9, 18, 25 and 31 of the present invention, together with the compounds Z--Pro--Leu--Cyt and FUR--Leu--Cyt (Examples 1 and 8, respectively, of WO 92/06018) were tested on hypereosinophilia induced in rats by Sephadex G-200 resin.

The test system of data set [5] is human melanoma cell line VMM-5. As to the kind of experiment: Matrigel-based invasion assay with human melanoma cells. The following applies: Concentration 500 micro M, VMM-5 cells, 20 hours. Format: cell-based. From the text:
In order to obtain information about the possible interference of the synthesized compounds on the ability of tumor cells to migrate through the body (metastatization), the human melanoma cell line VMM-5 was used in the matrigel-based invasion assay, in which basal membrane matrigel (Becton Dickinson) and tissue culture inserts with 8 microns pore size in 24 well tissue culture plates were used as Boyden chambers. The chambers were coated with diluted matrigel and allowed to dry overnight; they were then reconstituted with serum free medium, and melanoma cells (4,000,000/ml) were dispensed in each insert. In the lower chambers, a chemoattractant was included. The chambers were finally placed in a humidified CO2 incubator at 37° C., and incubated for 20 hours. The inserts were dried and the cells on the upper surface removed. The polycarbonate filters were fixed with methanol, stained with hematoxylin and eosin, and counted with a microscope. Inhibition of migration due to compounds has been expressed as a percentage of the total number of migrated cells in the control chambers containing only the buffer in which the compounds were dissolved.

Data set [6] can be described thus: Resistance to proteolytic activity in stomach juices (rat stomach homogenate, HPLC). The following applies: 37° C.
Description: To check if the compounds of the present invention are resistant to proteolytic activity in stomach juices and, therefore, could be administered orally, the stomachs of fasting rats were homogenized in physiological solutions (1:1). 300 microliters of solutions of the compounds (1 mg/ml of saline) were incubated with 0.5 ml of stomach homogenates (37° C.).
Data set [7] has as its target T1, recombinant human gelatinase B (Homo sapiens, UniProt P14780).
T1 construct: purchased Stangeways Laboratories, Cambridge, UK (so in the source)
Description: In vitro effects on recombinant human gelatinase B. Format: biochemical. On the procedure: Assays on human gelatinase B, another enzyme released by tumor cells, were performed using also, in this case, the protein obtained by recombinant biotechnology Stangeways Laboratories, Cambridge, UK). As usual, the enzymatic activity was followed over time, measuring the amount of fluorescent substrate cleaved by the enzyme, in the presence or absence of synthetic compounds (Perkin Elmer L50 B fluorimeter).

Data set [8] concerns the target metalloproteinase purified from snake venom, Echis Carinatus. As to the kind of experiment: Inhibition of metalloproteinase purified from Echis Carinatus venom. Format: biochemical. Particulars: Table 5; unit M.
For data set [9], the target named is metalloproteinase purified from snake venom, Bothrops Atrox. As to the kind of experiment: Inhibition of metalloproteinase purified from Bothrops Atrox venom. The class given is biochemical. The following applies: Table 5; unit M.
Data set [10] deals with metalloproteinase purified from snake venom, Bothrops Jararaca. As to the kind of experiment: Inhibition of metalloproteinase purified from Bothrops Jararaca venom. Format: biochemical. Particulars: Table 5; unit M.

Sequence of enzyme purified from the venom of Crotalus Adamanteus (hemorrhagin) (P34179 whole entry, looked up): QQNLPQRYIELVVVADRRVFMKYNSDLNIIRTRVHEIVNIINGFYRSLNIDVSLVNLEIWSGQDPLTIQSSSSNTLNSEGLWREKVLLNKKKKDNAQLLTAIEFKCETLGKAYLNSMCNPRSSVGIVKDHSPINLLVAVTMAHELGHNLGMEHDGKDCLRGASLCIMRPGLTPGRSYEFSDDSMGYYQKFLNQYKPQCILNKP
T1 sequence (P14780 94-707): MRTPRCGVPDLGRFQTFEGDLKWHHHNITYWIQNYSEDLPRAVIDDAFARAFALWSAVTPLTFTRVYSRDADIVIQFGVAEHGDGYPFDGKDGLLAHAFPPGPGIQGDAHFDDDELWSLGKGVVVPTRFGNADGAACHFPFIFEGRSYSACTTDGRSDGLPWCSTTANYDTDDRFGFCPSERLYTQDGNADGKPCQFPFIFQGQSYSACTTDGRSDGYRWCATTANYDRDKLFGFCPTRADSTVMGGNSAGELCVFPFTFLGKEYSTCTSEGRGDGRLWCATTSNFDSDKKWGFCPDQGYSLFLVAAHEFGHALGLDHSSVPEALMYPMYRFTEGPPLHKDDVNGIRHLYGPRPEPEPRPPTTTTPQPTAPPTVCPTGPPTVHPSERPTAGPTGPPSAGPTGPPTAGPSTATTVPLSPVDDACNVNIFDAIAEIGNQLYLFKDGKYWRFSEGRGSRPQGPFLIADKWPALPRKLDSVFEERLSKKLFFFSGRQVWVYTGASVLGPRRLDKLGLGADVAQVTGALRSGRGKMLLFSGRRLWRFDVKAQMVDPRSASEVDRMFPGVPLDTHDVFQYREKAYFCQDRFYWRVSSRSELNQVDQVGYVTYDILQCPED

In the case of “4-MBZ--(L)--Trp--(S)--Cyt--OH [Compound 25]”, in data set [1], the IC50 worked out at 54 nM. Also, in data set [2] (Concentration 5.2 × 10^-5 M), the “% Inhibition” value was found to be 23%. The “IC50 of inhibition of TNF release by cells” value (“IC50 of inhibition … by cells” below) in data set [3] is “around 0.7 mcg/ml”. Further, the “Effect on number of blood cells that migrate to the inflamed site” value (shortened to “Effect on number”) in [4] was “interfered with the number of blood cells that migrate to the inflamed site”.
For `CC(C)C[C@H](NC(=O)CSc1ccncc1)C(=O)N1Cc2[nH]c3ccccc3c2C[C@H]1C(=O)O` [Compound 3, 4-PTA--(L)--Leu--(S)--Cyt--OH], the IC50 in data set [1] was 360 nM. For the same molecule, the “% Inhibition of Invasion” value in [5] is 69%. Besides, in data set [6], the “Residue after 60 Minutes” value is recorded as 100% and the “Residue after 120 Minutes” value is greater than 95%.
For `CC(C)C[C@H](NC(=O)c1ccccn1)C(=O)N1Cc2[nH]c3ccccc3c2C[C@H]1C(=O)O` [Compound 9, PIC--(L)--Leu--(S)--Cyt--OH], the IC50 in data set [1] worked out at 27 nM. For the same molecule, in data set [7] (Concentration 1.1 × 10^-5 M), the “% Inhibition” value came to 20%. Also, the “IC50 of inhibition … by cells” value in data set [3] is given as “around 8 mcg/ml”. Further, the “Effect on number” value in [4] is on record as “interfered with the number of blood cells that migrate to the inflamed site”. Also, in data set [5], the “% Inhibition of Invasion” value worked out at 94%.
In the case of `O=C(N[C@@H](CC1CCCCC1)C(=O)N1Cc2[nH]c3ccccc3c2C[C@H]1C(=O)O)c1ccco1` [Compound 10, 2-FUR--(L)--Cha--(S)--Cyt--OH], in data set [1], the IC50 amounted to 25 nM. For the same molecule, the “% Inhibition” value in data set [7] (Concentration 1.1 × 10^-5 M) is 32%. For the same molecule, in data set [2] (Concentration 2.1 × 10^-5 M), the “% Inhibition” value was determined as 51%. For the same molecule, the “IC50 of inhibition … by cells” value in data set [3] was “around 200 mcg/ml”. For the same molecule, the “% Inhibition of Invasion” value in data set [5] is on record as 99%. For the same molecule, in data set [6], the “Residue after 60 Minutes” value came to 100% and the “Residue after 120 Minutes” value is greater than 95%.
For `CC(C)C[C@H](NC(=O)c1cc2ccccc2o1)C(=O)N1Cc2[nH]c3ccccc3c2C[C@H]1C(=O)O` [Compound 15, 2-BZF--(L)--Leu--(S)--Cyt--OH], the IC50 in data set [1] turned out to be 40 nM; in data set [8] it was 2000 nM; in data set [9], 8200 nM; in data set [10], 14000 nM.
With `COc1ccc(C(=O)N[C@@H](CC(C)C)C(=O)N2Cc3[nH]c4ccccc4c3C[C@H]2C(=O)O)c(OC)c1` [Compound 24, 2,4-Dimethoxybenzoyl--(L)--Leu--(S)--Cyt--OH], the IC50 in data set [1] was found to be 98 nM. The figures for the “% Inhibition” value in data set [7] (Concentration 1.0 × 10^-5 M) and in [2] (Concentration 2.0 × 10^-5 M) were 48% and 19%, respectively. Further, the “% Inhibition of Invasion” value in [5] came to 100%.
As to FUR--Leu--Cyt, in [4], the “Effect on number” value is reported as “interfered with the number of blood cells that migrate to the inflamed site”. Also, in data set [5], the “% Inhibition of Invasion” value came to 69%.
For the molecule MePro--Leu--Cyt, the “% Inhibition” value in [7] (Concentration 1.1 × 10^-5 M) is on record as 37%. Moreover, the “% Inhibition of Invasion” value in [5] is 40%.
